Here are results for one molecule from patent publication US20040204493A1, “Carbonic anhydrase inhibitors as drugs to eradicate Helicobacter pylori in the mammalian, including human, stomach” (priority 2003, published 2004).

One assay deals with T1, urease (Helicobacter pylori, UniProt P69996).
T1 construct: endogenous in cells
In words: Urease activity of H. pylori under in vitro treatment. The format is cell-based. To be noted: wildtype H. pylori. The source says:
(§1) H. pylori bacteria which could not produce α-carbonic anhydrase gene (deletion mutants) were unable to survive in acid and were incapable of raising their periplasmic pH even with wildtype urease activity levels. […] This is illustrated in FIG. 1 of the appended drawings.

The conditions of assay [1]: cited from earlier work.
The subject of assay [2] is basal acid secretion and stimulated acid secretion. To be noted: humans, cited from earlier work.
Assay [3] concerns H. pylori. In words: Survival of wildtype H. pylori in acid, in vitro. The assay is classed as cell-based, Helicobacter pylori.
Source text: as §1
Therefore, it is now understood in accordance with the present invention that it is the combination of urease activation, expression of UreI and the periplasmic carbonic anhydrase that allows gastric colonization by H. pylori. […] Thus, targeting the acid biology of this pathogen provides specific H. pylori therapy. It is recognized in accordance with the present invention that within these three targets, a safe drug is only available for carbonic anhydrase.

The test system of assay [4] is H. pylori. In words: Periplasmic pH buffering of H. pylori in acid with urea, fluorescent pH sensitive dye BCECF (FIG. 1). The assay is classed as cell-based, Helicobacter pylori. The method, then:
as §1
Specifically, H. pylori was incubated in acid along with a fluorescent pH sensitive dye, BCECF, (bis-carboxy ethylcarboxy fluorescein) and then urea was added at 5 mM which is substantially the gastric juice concentration. In part A of the figure the increase in periplasmic pH is shown by the increased fluorescence of the dye indicating viable H. pylori bacteria.

Each structure is given as a SMILES string. Like-named read-outs stand apart in the source and are kept apart here.

T1 sequence (P69996 whole entry): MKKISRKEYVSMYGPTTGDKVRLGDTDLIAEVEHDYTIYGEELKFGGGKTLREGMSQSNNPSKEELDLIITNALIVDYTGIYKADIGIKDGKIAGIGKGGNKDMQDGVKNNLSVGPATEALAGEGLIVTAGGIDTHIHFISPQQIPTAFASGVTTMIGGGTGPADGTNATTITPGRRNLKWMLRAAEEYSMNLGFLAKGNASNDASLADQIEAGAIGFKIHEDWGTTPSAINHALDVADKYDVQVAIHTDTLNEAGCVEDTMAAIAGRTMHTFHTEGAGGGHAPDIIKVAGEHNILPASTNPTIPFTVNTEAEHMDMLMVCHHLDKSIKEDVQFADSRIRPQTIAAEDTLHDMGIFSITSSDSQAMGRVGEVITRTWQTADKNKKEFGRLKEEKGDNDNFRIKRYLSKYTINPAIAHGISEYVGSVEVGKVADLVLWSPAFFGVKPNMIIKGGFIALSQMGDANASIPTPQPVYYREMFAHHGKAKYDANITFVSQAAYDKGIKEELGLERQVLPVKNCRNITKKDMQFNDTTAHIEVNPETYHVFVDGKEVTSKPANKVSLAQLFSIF
T1 sequence (P14916 whole entry, further chain): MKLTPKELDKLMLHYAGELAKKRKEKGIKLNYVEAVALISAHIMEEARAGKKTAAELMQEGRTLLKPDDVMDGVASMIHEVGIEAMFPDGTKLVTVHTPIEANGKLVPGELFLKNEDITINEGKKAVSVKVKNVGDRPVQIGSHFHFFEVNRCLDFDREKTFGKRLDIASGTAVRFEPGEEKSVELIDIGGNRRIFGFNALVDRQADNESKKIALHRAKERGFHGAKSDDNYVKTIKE

For the molecule `CC(=O)Nc1nnc(S(N)(=O)=O)s1` [acetazolamide], on urease, the “effect on urease activity” value is “without affecting urease activity”. Besides, the relapse rate in assay [1] (2 years after treatment, treated for 30 days (Valean et al.)) is 6.2%; in assay [1] (3 week treatment, ulcer healing (Erdei et al.)) it was 11%. Further, the “patients with intragastric pain abolished” value in assay [1] (118 gastric ulcer patients, oral, after 3-5 days) is given as 94%. For the same molecule, the “patients with complete ulcer healing (endoscopic evaluation)” value was 87% in assay [1] (after 15 days of treatment) and 94% in assay [1] (after 30 days of treatment). Also, the “reduction of histamine stimulated acid secretion (MAO)” value in assay [2] (histamine stimulated) is given as 83.2%. Also, the “reduction of basal acid output (BAO)” value in assay [2] is 92.3%. The “return of normal acid secretion following cessation of treatment” value in assay [2] is reported as 3-5. Further, the “time of treatment to maximal acid inhibition” value in assay [2] was 3 to 5 days. The “loss of survival of H. pylori in acid” value with H. pylori [3] (in acid, drug present) was > 3 log order of magnitude. Moreover, the “bacterial ability to survive in acid” value in the assay with H. pylori [3] (wildtype H. pylori, in vitro treatment) is on record as “inhibited the bacterial ability to survive in acid”. Also, the “periplasmic buffering of pH (BCECF fluorescence)” value in the assay on H. pylori [4] (normal H. pylori in acid, urea 5 mM, drug added to the medium, FIG. 1 part C) was “no periplasmic buffering of pH detected”. Further, the “bacterial ability to buffer its periplasm” value with H. pylori [4] (wildtype H. pylori in acid, in vitro treatment) is given as “inhibited”.
